Assay results as given in EPA's ToxValDB 9.5 (doi:10.2903/j.efsa.2009.193r).
Values after ≈ are worked out from the molar mass of the structure shown.

Tests used:
Lepomis macrochirus = settings: acute; duration: 96 hours; mortality
Apis mellifera = settings: acute; duration: 48 hours; dermal; mortality
Folsomia candida = settings: chronic/long-term; duration: 28 days; mortality
Tagia sp. = settings: acute; duration: 14 days; mortality
Anas platyrhynchos = settings: short-term; oral; feed; mortality
Aphidius rhopalosiphi = experiment: LR50; higher = less toxic; settings: not reported; mortality

[O-][n+]1nc(-n2ccnc2)nc2ccc(Cl)cc21 [Triazoxide]
LD50 (Coturnix japonica; acute, oral, mortality): 90 mg/kg-day | NOEC (Coturnix japonica; reproduction developmental, duration: 6 weeks): 11.7 mg/kg-day | LC50 (Lepomis macrochirus): 0.077 mg/L (≈ 0.311 µM) | LD50 (Apis mellifera): > 200 µg/piece | NOEC (Folsomia candida): 500 mg/kg | LC50 (Tagia sp.): > 1000 mg/kg | LD50 (Anas platyrhynchos): 268 mg/kg-day | LD50 (Rattus norvegicus; acute, oral, mortality): 98 mg/kg-day | LOAEL (Rattus norvegicus; chronic, duration: 2 years, oral, diet, hematological): 0.05 mg/kg-day | NOAEL (Rattus norvegicus; reproduction developmental, organ weight): 0.11 mg/kg-day | NOAEL (Rattus norvegicus; reproduction developmental, reproduction): 2.04 mg/kg-day | NOAEL (Rattus norvegicus; short-term, duration: 28 days, oral, hematological): 1.5 mg/kg-day | NOAEL (Rattus norvegicus; subchronic, duration: 90 days, oral, hematological): 0.21 mg/kg-day | LR50 (Aphidius rhopalosiphi): > 5.13 g/ha
